Structures are written as SMILES.

From US20250361234A1 (NICO THERAPEUTICS, INC., priority 2022, published 2025) come the findings set out here.

This assay addresses T1, full-length SARM1 (FL-SARM1) (Homo sapiens, UniProt Q6SZW1).
T1 sequence (Q6SZW1 28-724): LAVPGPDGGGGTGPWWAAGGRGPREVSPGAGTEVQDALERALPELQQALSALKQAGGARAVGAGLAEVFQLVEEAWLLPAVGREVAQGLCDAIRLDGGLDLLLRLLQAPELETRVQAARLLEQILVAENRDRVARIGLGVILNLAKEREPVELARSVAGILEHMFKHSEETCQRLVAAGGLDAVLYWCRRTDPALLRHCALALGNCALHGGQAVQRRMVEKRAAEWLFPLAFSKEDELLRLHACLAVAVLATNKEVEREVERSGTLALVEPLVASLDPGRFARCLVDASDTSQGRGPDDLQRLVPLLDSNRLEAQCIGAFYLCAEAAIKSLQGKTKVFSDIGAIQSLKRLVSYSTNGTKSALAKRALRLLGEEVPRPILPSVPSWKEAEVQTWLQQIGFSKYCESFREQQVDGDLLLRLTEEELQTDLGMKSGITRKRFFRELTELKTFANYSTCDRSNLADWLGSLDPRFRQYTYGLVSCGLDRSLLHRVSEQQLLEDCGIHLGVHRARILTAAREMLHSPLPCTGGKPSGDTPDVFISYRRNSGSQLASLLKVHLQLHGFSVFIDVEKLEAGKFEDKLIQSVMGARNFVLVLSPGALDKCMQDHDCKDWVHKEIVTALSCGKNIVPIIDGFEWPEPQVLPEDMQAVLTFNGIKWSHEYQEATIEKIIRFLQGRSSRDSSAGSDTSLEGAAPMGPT
Description: FL-SARM1 cellular lysate assay (NAD/NADH-Glo readout of remaining NAD+). The note with it: SARM1 cellular lysate from transfected HEK293T cells, NAD+ and NMN, 11 point curve.

In the case of `Cc1ccc(NC(=O)[C@H]2C[C@@](C#N)(C3CC3)C2)cc1-c1cncc(F)c1` [Example 106, trans-3-cyano-3-cyclopropyl-N-[3-(5-fluoropyridin-3-yl)-4-methylphenyl]cyclobutane-1-carboxamide], the IC50 (Activity (μM)) was 0.6 µM and the IC50 (Activity) was 0.0001 to 1 µM.

Turning to `Cc1ccc(NC(=O)[C@H]2C[C@](C#N)(C3CC3)C2)cc1-c1cncc(F)c1` [Example 107, cis-3-cyano-3-cyclopropyl-N-[3-(5-fluoropyridin-3-yl)-4-methylphenyl]cyclobutane-1-carboxamide], the IC50 was 38.9 µM (Activity (μM)) and above 10 µM (Activity).

In turn, `Cc1ccc(NC(=O)[C@H]2C[C@H](C3CC3)C2)cc1-c1cncc(F)c1` [Example 108, trans-3-cyclopropyl-N-[3-(5-fluoropyridin-3-yl)-4-methylphenyl]cyclobutane-1-carboxamide] yielded an IC50 (Activity (μM)) of 5.3 µM and an IC50 (Activity) of 1 to 10 µM.

As to `Cc1ccc(NC(=O)[C@H]2C[C@@H](C3CC3)C2)cc1-c1cncc(F)c1` [Example 109, cis-3-cyclopropyl-N-[3-(5-fluoropyridin-3-yl)-4-methylphenyl]cyclobutane-1-carboxamide], the IC50 is, setting by setting: (Activity (μM)) 0.5 µM; (Activity) 0.0001 to 1 µM.

In the case of `Cc1ccc(NC(=O)[C@@H]2CC2(F)F)cc1-c1cncc(F)c1` [Example 110, (S)-2,2-difluoro-N-(3-(5-fluoropyridin-3-yl)-4-methylphenyl)cyclopropanecarboxamide], the concentration for half-maximal inhibition (IC50) is 8.2 µM (Activity (μM)) and 1 to 10 µM (Activity).

Consider `Cc1ncc(-c2cc(NC(=O)[C@@H]3CC3(F)F)ccc2C)cn1` [Example 111, (1S)-2,2-difluoro-N-[4-methyl-3-(2-methylpyrimidin-5-yl)phenyl]cyclopropane-1-carboxamide], for which the IC50 runs as follows: (Activity (μM)) 20.4 µM; (Activity) above 10 µM.

Take `Cc1ccc(NC(=O)[C@@H]2CC2(F)F)cc1-c1cccnc1C` [Example 112, (1S)-2,2-difluoro-N-[4-methyl-3-(2-methylpyridin-3-yl)phenyl]cyclopropane-1-carboxamide]: 33.3 µM corresponded to half-maximal inhibition (Activity (μM)) (IC50) and the IC50 (Activity) is above 10 µM.

With `Cc1ccc(NC(=O)[C@@H]2CC2(F)F)cc1-c1cnc(C(F)(F)F)nc1` [Example 113, (1S)-2,2-difluoro-N-[4-methyl-3-[2-(trifluoromethyl)pyrimidin-5-yl]phenyl]cyclopropane-1-carboxamide], the IC50 is, setting by setting: (Activity (μM)) 34.4 µM; (Activity) above 10 µM.

`Cc1ccc(NC(=O)CC2CCC2)cc1-c1cccnc1` [Example 114, 2-cyclobutyl-N-(4-methyl-3-pyridin-3-ylphenyl)acetamide]: the IC50 reads like this: (Activity (μM)) 4.3 µM; (Activity) 1 to 10 µM.

On to `Cc1cncc(-c2cc(NC(=O)N3C4CCCC3C4)ccc2C)c1` [Example 115, N-[4-methyl-3-(5-methylpyridin-3-yl)phenyl]-6-azabicyclo[3.1.1]heptane-6-carboxamide], for which the IC50 was 0.1 µM (Activity (μM)) and 0.0001 to 1 µM (Activity).

The compound `Cc1ccc(NC(=O)N2C3CCCC2C3)cc1-c1cncc(C(F)(F)F)c1` [Example 116, N-[4-methyl-3-[5-(trifluoromethyl)pyridin-3-yl]phenyl]-6-azabicyclo[3.1.1]heptane-6-carboxamide] showed an IC50 (Activity (μM)) of 0.1 µM and an IC50 (Activity) of 0.0001 to 1 µM.

In turn, `Cc1ccc(NC(=O)N2C3CCCC2C3)cc1-c1cncc(Cl)c1` [Example 117, N-[3-(5-chloro-3-pyridyl)-4-methyl-phenyl]-6-azabicyclo[3.1.1]heptane-6-carboxamide] came in with an IC50 (Activity (μM)) of 0.03 µM and an IC50 (Activity) of 0.0001 to 1 µM.

For the compound `Cc1ccc(NC(=O)CC2CCC2)cc1-c1cncnc1` [Example 118, 2-cyclobutyl-N-(4-methyl-3-pyrimidin-5-ylphenyl)acetamide], the IC50 is, setting by setting: (Activity (μM)) 13.9 µM; (Activity) above 10 µM.

Regarding `Cc1ccc(NC(=O)OC2CCC2)cc1-c1cncc(F)c1` [Example 126, cyclobutyl (3-(5-fluoropyridin-3-yl)-4-methylphenyl)carbamate], the IC50 (Activity (μM)) amounted to 20.7 µM and the IC50 (Activity) is above 10 µM.

Regarding `Cc1ccc(NC(=O)OC2CCC2)cc1-c1cccnc1` [Example 129, cyclobutyl N-(4-methyl-3-pyridin-3-ylphenyl)carbamate], the IC50 is, setting by setting: (Activity (μM)) 30.9 µM; (Activity) above 10 µM.

As for `Cc1ccc(NC(=O)N2C3CCCC2C3)cc1-c1cnnnc1` [Example 130], the IC50 was 15.5 µM (Activity (μM)) and above 10 µM (Activity).

Regarding `COc1ccc(-c2cc(NC(=O)N3[C@@H]4C[C@@H](C)C[C@H]3C4)c(F)cc2Cl)cn1` [Example 131, cis-N-[4-chloro-2-fluoro-5-(6-methoxy-3-pyridinyl)phenyl]-3-methyl-6-azabicyclo[3.1.1]heptane-6-carboxamide], the IC50 by setting is: (Activity (μM)) 0.7 µM; (Activity) 0.0001 to 1 µM.
